Test results from ChEMBL document CHEMBL1122449, “Anticoccidial derivatives of 6-azauracil. 5. Potentiation by benzophenone side chains” (J Med Chem, 1983).

What was measured:
Eimeria tenella = assay: Anticoccidial activity which controlled infection by Eimeria tenella in Leghorn cockerels; format: functional; conditions: read-out: MEC
Eimeria necatrix = assay: Anticoccidial activity which controlled infection by Eimeria necatrix in Leghorn cockerels; MEC means minimum effective concentration in parts per million.; format: functional; conditions: read-out: MEC
[1] = Plasma half-life of the compound.; format: ADME
[2] = Apparent pKa value was measured in 2:1 DMF/H2O.; format: physicochemical
Eimeria acervulina = assay: Anticoccidial activity which controlled infection by Eimeria acervulina in Leghorn cockerels; conditions: read-out: MEC
[3] = Apparent pKa value was measured in 1:1 DMF/H2O.; format: physicochemical

| Structure (SMILES) | minimal effective concentration (Eimeria tenella) [µg/mL] | other results |
| --- | --- | --- |
| Cc1cc(-n2ncc(=O)[nH]c2=O)cc(C)c1C(O)c1ccc(Cl)cc1 (stereo not given) | 30 | – |
| CS(=O)(=O)c1ccc(C(=O)c2ccc(-n3ncc(=O)[nH]c3=O)cc2Cl)cc1 | – | minimal effective concentration (Eimeria necatrix): > 15 µg/mL |
| Cc1cc(Cl)ccc1C(=O)c1ccc(-n2ncc(=O)[nH]c2=O)cc1C | 15 | – |
| Cc1cc(-n2ncc(=O)[nH]c2=O)ccc1C(=O)c1ccc(Cl)cc1 | 8 | half-life [1]: 13 h; pH1/2 [2]: 7.6 |
| O=C(c1ccc(Cl)cc1Cl)c1ccc(-n2ncc(=O)[nH]c2=O)cc1Cl | 4 | – |
| CC(=O)c1ccc(-n2ncc(=O)[nH]c2=O)cc1 | > 250 | pH1/2 [2]: 6.53 |
| O=C(c1ccccc1)c1ccc(-n2ncc(=O)[nH]c2=O)cc1 | 60 | pH1/2 [2]: 7.79 |
| COc1ccc(C(=O)c2ccc(-n3ncc(=O)[nH]c3=O)cc2)cc1 | 125 | – |
| Cc1cc(-n2ncc(=O)[nH]c2=O)ccc1C(O)c1ccc(Cl)cc1 (stereo not given) | 15 | – |
| O=C(c1ccc(-n2ncc(=O)[nH]c2=O)cc1)c1cccs1 | > 250 | – |
| CSc1ccc(C(=O)c2ccc(-n3ncc(=O)[nH]c3=O)cc2Cl)cc1 | – | minimal effective concentration (Eimeria acervulina): > 30 µg/mL |
| O=C(c1ccc(Cl)cc1)c1ccc(-n2ncc(=O)[nH]c2=O)cc1Cl | 2 | half-life [1]: 20 h; pH1/2 [2]: 7.16 |
| Cc1cc(-n2ncc(=O)[nH]c2=O)ccc1Cc1ccccc1 | 30 | – |
| O=c1cnn(-c2ccc(C(O)c3ccc(Cl)cc3)c(Cl)c2)c(=O)[nH]1 (stereo not given) | 2 | – |
| Cc1cc(-n2ncc(=O)[nH]c2=O)cc(Cl)c1C(=O)c1ccc(Cl)cc1 | 8 | half-life [1]: 21 h |
| O=C(c1ccccc1)c1cccc(-n2ncc(=O)[nH]c2=O)c1 | > 250 | – |

| Structure (SMILES) | minimal effective concentration (Eimeria tenella) [µg/mL] | other results |
| --- | --- | --- |
| Cc1cc(-n2ncc(=O)[nH]c2=O)cc(C)c1C(=O)c1ccc(Cl)cc1 | 15 | – |
| CC(=O)c1ccc(-n2ncc(=O)[nH]c2=O)cc1Cl | 125 | – |
| O=C(c1ccccc1)c1ccc(-n2ncc(=O)[nH]c2=O)cc1Cl | 15 | pH1/2 [2]: 7.04 |
| Cc1cc(C)c(C(=O)c2ccc(-n3ncc(=O)[nH]c3=O)cc2)c(C)c1 | > 250 | pH1/2 [2]: 7.16 |
| O=C(c1ccccc1)c1cc(-n2ncc(=O)[nH]c2=O)ccc1Cl | > 250 | – |
| Cc1cc(-n2ncc(=O)[nH]c2=O)ccc1C(O)c1ccccc1 (stereo not given) | 30 | pH1/2 [3]: 7.37 |
| O=C(c1ccc(Cl)cc1)c1ccc(-n2ncc(=O)[nH]c2=O)cc1 | 30 | – |
| O=c1cnn(-c2ccc(-c3ccc4oc5ccc(Cl)cc5c(=O)c4c3)cc2)c(=O)[nH]1 | > 250 | – |
| CCCC(=O)c1ccc(-n2ncc(=O)[nH]c2=O)cc1 | > 60 | – |
| Cc1cc(-n2ncc(=O)[nH]c2=O)ccc1C(=O)c1ccc(C#N)cc1 | 125 | pH1/2 [2]: 7.08 |
| Cc1cc(-n2ncc(=O)[nH]c2=O)ccc1C(=O)c1ccccc1Cl | 60 | pH1/2 [2]: 7.08 |
| Cc1cc(-n2ncc(=O)[nH]c2=O)ccc1C(=O)c1ccc(Cl)cc1Cl | 4 | half-life [1]: 45 h |
| Cc1cc(Br)ccc1C(=O)c1ccc(-n2ncc(=O)[nH]c2=O)cc1Cl | 8 | – |
| Cc1ccc(C(=O)c2ccc(-n3ncc(=O)[nH]c3=O)cc2)cc1 | > 250 | – |
| Cc1cc(-n2ncc(=O)[nH]c2=O)ccc1C(=O)c1ccccc1 | 8 | pH1/2 [3]: 7.02 |
